Laboratory results published in publication PMC7927616, “Dual‐Targeting Peptide‐Guided Approach for Precision Delivery and Cancer Monitoring by Using a Safe Upconversion Nanoplatform” (Advanced Science, 2021).

Tests used:
[1] = In vivo biodistribution by ICP-MS (Gd); parameters: species or system BALB/c nude mice; settings: mouse, iv
p65 in LCL3 cells = assay: NF‐κB signaling analysis by Western blotting; format: cell-based; settings: Western blot band density
Description: (§1) NF‐ĸB signaling pathway is critical for the survival of EBV‐infected tumor cells. Here we investigated if our nanoprobes could affect this oncogenic pathway. EBV‐positive LCL3 and C666 cells were used as models, EBV‐negative HK1 cells were used as control and Western blot was used to analyze the protein expression of p65, a major transcription factor in the NF‐ĸB family. […] GAPDH and Histone are regarded as internal standards in cytosolic and nuclear fractions, respectively. […] This is consistent with the cellular uptake results. The negligible differences of p65 expression level in HK1 cells were quantified after various treatments in Figure S28 (Supporting Information).
(§2) EBV‐positive C666, LCL3 and EBV‐negative HK1 cell pellets were treated with phosphatase and protease inhibitors at 0–4 °C for 30 min. The total protein concentrations were calculated by protein absorbance. The protein was resolved by sodium dodecyl sulfate‐polyacrylamide gel electrophoresis (SDS‐PAGE) and transferred to cellulose filter membranes. The membranes were blocked with 3% BSA in tris‐buffered saline in 0.1% Tween 20 (TBST) for 1 h with gentle shaking and subsequently incubated with primary antibodies (1:1000) in 3% BSA in TBST at 4 °C for overnight. […] Lastly, the density of bands was determined by image analysis system after washing with TBST buffer three times.

p65 in C666 cells = assay: NF‐κB signaling analysis by Western blotting; format: cell-based; settings: Western blot band density
Description: as §1, §2

NaGdF4:Yb^3+, Er^3+@NaGdF4 [UCNP]
Tumor uptake [1]: nearly undetectable

‐Ahx‐YFMVFGGRrRKGGFWLY [P5]
Decreased p65 expression, nuclear fraction (p65 in LCL3 cells): 86%
Decreased p65 expression, nuclear fraction (p65 in C666 cells): 89%
